Reference: patent US12653190B2, “Heteroaryl-triazole compounds as pesticides” (Bayer Aktiengesellschaft, priority 2020, dated 2026)

Key:
Format in all cases: in vivo
[1] = system: adult engorged female ticks (Rhipicephalus microplus); assay: Rhipicephalus (Boophilus) microplus injection test; settings: 168 h, egg deposition monitored after 7 days, read-out: efficacy (infertile eggs); for pest or weed control at 4 µg/tick: 4 μg/tick injected; for pest or weed control at 20 µg/tick: 20 μg/tick injected
Summary of the method: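 Five adult engorged female ticks each injected with 1 μL of DMSO compound solution into the abdomen, then kept in a climate chamber. Fertile egg deposition assessed after 7 days, with hatching followed to about 42 days; efficacy 100% means all eggs infertile, 0% all fertile.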

[2] = system: larvae of the southern green stink bug (Nezara viridula); assay: Nezara viridula spray test; settings: 96 h, after 4 days, barley plants
Summary of the method: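 Percent mortality of southern green stink bug larvae was recorded at day 4, with 100% meaning all dead. The larvae were placed on barley sprayed with the test solution. That solution was prepared from acetone/dimethylformamide concentrate diluted in emulsifier-containing water (1000 ppm).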

[3] = system: brown planthopper (Nilaparvata lugens); assay: Nilaparvata lugens spray test; settings: 96 h, after 4 days, rice plants
Experimental: Nilaparvata lugens—Spray Test • Solvent: 78.0 parts by weight of acetone • 1.5 parts by weight of dimethylformamide • Emulsifier: alkylarylpolyglycol ether
To produce a suitable preparation of active compound, 1 part by weight of active compound is mixed with the stated amount of solvents and is diluted with water, containing an emulsifier concentration of 1000 ppm, to the desired concentration. Further test concentrations are prepared by dilution with emulsifier containing water.
Rice plants (Oryza sativa) are sprayed with a preparation of the active ingredient of the desired concentration and the plants are infested with the brown planthopper (Nilaparvata lugens).
After 4 days mortality in % is determined. 100% means all planthoppers have been killed and 0% means none of the planthoppers have been killed.

[4] = system: larvae of the banded cucumber beetle (Diabrotica balteata); assay: Diabrotica balteata spray test; settings: 168 h, after 7 days, wheat seeds, read-out: efficacy (seedling growth); for pest or weed control at 160 µg/disc, 500 g/ha: 500 g/ha (=160 μg/well); for pest or weed control at 32 µg/disc, 100 g/ha: 100 g/ha (=32 μg/well)
Summary of the method: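 Efficacy is seedling survival after 7 days, where 0% means no seedlings grew and 100% means growth equal to untreated, uninfested controls. Wheat seedlings, germinated on agar for 1 day, were sprayed with the aqueous emulsifier dilution (acetone/DMF solvent) and then exposed to 10–20 banded cucumber beetle larvae.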

[5] = system: green peach aphid (Myzus persicae); assay: Myzus persicae spray test; settings: foliar, 120 h, after 5 days, Chinese cabbage leaf disks
Summary of the method: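 Chinese cabbage leaf disks infested with all aphid instars were sprayed with compound in acetone/DMF, diluted in water with 1000 ppm alkylarylpolyglycol ether emulsifier. Mortality (%) scored after 5 days, 100% meaning all aphids killed.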

[6] = system: fall armyworm larvae (Spodoptera frugiperda); assay: Spodoptera frugiperda spray test; settings: in Zea mays, 168 h
Summary of the method: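 Maize leaf sections were sprayed with compound in acetone/dimethylformamide diluted in water with 1000 ppm emulsifier, dried, then infested with larvae. Mortality in % was scored after 7 days, 100% meaning all caterpillars killed.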

[7] = system: adult flies Musca domestica strain WHO-N; assay: Musca domestica test (MUSCDO surface treatment & contact assay); settings: surface concentration 20 mg/m^2, 30 minutes exposure, 24 hours after contact, read-out: efficacy (mortality)
Summary of the method: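 Compound dissolved in acetone (2 mg/ml) with 2000 ppm rapeseed oil methyl ester and dried onto glazed tiles. Adult WHO-N strain flies were held on the treated surface for 30 minutes, with % mortality scored 24 hours after contact.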

[8] = system: adult unfed cat fleas (Ctenocephalides felis); assay: Ctenocephalides felis oral test; settings: 48 h, 100 ppm in cattle blood, after 2 days
Experimental: Ctenocephalides felis—Oral Test
• Solvent: dimethyl sulfoxide
To produce a suitable preparation of active compound, 10 mg of active compound are dissolved in 0.5 mL solvent, and the concentrate is diluted with cattle blood to the desired concentration.
Approximately 20 adult unfed cat fleas (Ctenocephalides felts) are placed in flea chambers. The blood chamber, sealed with parafilm on the bottom, are filled with cattle blood supplied with compound solution and placed on the gauze covered top of the flea chamber, so that the fleas are able to suck the blood. The blood chamber is heated to 37° C. whereas the flea chamber is kept at room temperature.
After 2 days mortality in % is determined. 100% means all the fleas have been killed; 0% means none of the fleas have been killed.

[9] = system: adult cat fleas (Ctenocephalides felis); assay: Ctenocephalides felis in-vitro contact test, adult cat flea; settings: 5 μg/cm^2 (=500 g/ha), after 48 hours, read-out: efficacy (fleas dead or moribund)
Experimental: Ctenocephalides felis—In-Vitro Contact Tests Adult Cat Flea
9 mg compound is solved in 1 mL acetone and diluted with acetone to the desired concentration. 250 μL of the test solution is filled in 25 mL glass test tubes and homogeneously distributed on the inner walls by rotation and tilting on a shaking device (2 h at 30 rpm). With a compound concentration of 900 ppm, an inner surface of 44.7 cm^2 and a homogeneous distribution, a dose of 5 μg/cm^2 is achieved.
After the solvent has evaporated, each test tube is filled with 5-10 adult cat fleas (Ctenocephalides felis), closed with a perforated lid and incubated in a lying position at room temperature and relative humidity. After 48 hours efficacy is determined. The fleas are patted on the ground of the tubes and are incubated on a heating plate at 45-50° C. for at most 5 minutes Immotile or uncoordinated moving fleas, which are not able to escape the heat by climbing upwards, are marked as dead or moribund.
An efficacy of 100% means all fleas are dead or moribund; 0% means no fleas are dead or moribund.

[10] = system: Rhipicephalus (Boophilus) microplus larvae (strain Parkhurst, resistant against synthetic pyrethroids); assay: Rhipicephalus (Boophilus) microplus in-vitro contact test, larval cattle tick; settings: 5 μg/cm^2 (=500 g/ha), after 48 hours, read-out: efficacy (larvae dead or moribund)
Summary of the method: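 Acetone solutions coated onto glass tube walls, 900 ppm giving 5 μg/cm^2; 20–50 larvae per tube after solvent evaporation. Incubated 48 h at 27 °C, 85% relative humidity; efficacy from negative geotaxis, 100% meaning all larvae dead or moribund.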

SMILES | pest or weed control at 4 µg/tick [1] [%] | pest or weed control at 20 µg/tick [1] [%] | mortality at 100 g/ha [2] [%] | mortality at 100 g/ha [3] [%] | pest or weed control at 160 µg/disc, 500 g/ha [4] [%] | mortality at 500 g/ha [2] [%] | mortality at 500 g/ha [3] [%] | pest or weed control at 32 µg/disc, 100 g/ha [4] [%] | mortality at 100 g/ha [5] [%] | mortality at 100 g/ha [6] [%] | mortality at 20 mg/m2 [7] [%] | mortality at 100 ppm [8] [%] | pest or weed control at 5 µg/cm2, 5 µg/cm2 [9] [%] | pest or weed control at 5 µg/cm2, 5 µg/cm2 [10] [%] | mortality at 500 g/ha [6] [%]
Cc1cc(OC2CCCC2)cc(C(=O)N[C@@H](C)c2ncnn2-c2ccc(C#N)cn2)c1 [Example I-4, N-{(1S)-1-[1-(5-Cyanopyridin-2-yl)-1H-1,2,4-triazol-5-yl]ethyl}-3-(cyclopentyloxy)-5-methylbenzamide] | 100 | 100 | 100 | 100 | 100 | – | – | – | – | – | – | – | – | – | –
C[C@H](NC(=O)c1cc(OC(F)(F)F)cc(C(C)(C)C#N)c1)c1ncnn1-c1cc(C#N)ncn1 [Example I-66] | – | – | – | – | – | 100 | 100 | 100 | 100 | 100 | – | – | – | – | –
Cc1nc([C@H](C)NC(=O)c2cc(OC(F)(F)F)cc(C(C)(C)C#N)c2)n(-c2ncc(C#N)s2)n1 [Example I-51] | – | – | – | – | – | 100 | 100 | 100 | – | 100 | – | – | – | – | –
C[C@H](NC(=O)c1cc(Cl)cc(C(C)(C)C#N)c1)c1nc(C2CC2)nn1-c1ccc(C#N)cn1 [Example I-38] | – | – | 90 | – | – | 100 | 100 | 100 | – | 100 | 80 to 100 | – | – | – | –
Cc1cc(OC2COC2)cc(C(=O)N[C@@H](C)c2ncnn2-c2ccc(C#N)cn2)c1 [Example I-6, N-{(1S)-1-[1-(5-Cyanopyridin-2-yl)-1H-1,2,4-triazol-5-yl]ethyl}-3-methyl-5-(oxetan-3-yloxy)benzamide] | 100 | 100 | 100 | 100 | 100 | – | – | – | – | – | – | 100 | 100 | 90 | 100
